{"source": "patent US20230181524A1", "about": "“PHARMACEUTICAL COMBINATION AND USE THEREOF” (NATURAL MEDICINE INSTITUTE OF ZHEJIANG YANGSHENGTANG CO., …, priority 2020, published 2023)", "key": {"[1]": {"test_system": "143B human osteosarcoma cells", "test": "Migration of osteosarcoma cells (scratch lines, photographs at 12h and 24h)", "format": "cell-based", "details": "143B cells, 0.1 μM PKF118-310 in combination with 0.5 mM Vc", "procedure": "(§1) (1) HOS human osteosarcoma cells and 143B human osteosarcoma cells were subcultured at 37° C., 5% CO2 in an incubator with a RPMI-1640 medium containing 10% fetal bovine serum.\n(§2) 10 μL was taken for counting.\n(§3) The diluted cells were plated into a 12-well plate with 1 mL per well, i.e., about 100,000 cells per well.\n(§4) (4) The cells plated in the 12-well plate were cultured to a density of more than 80%. Then, a control group (to which DMSO was added), as well as groups to which 0.1 μM of PKF118-310, 0.5 mM Vc, and a combination of 0.1 μM of PKF118-310 with 0.5 mM sodium ascorbate were respectively added were prepared. Parallel lines were drawn with the tip of a 10 μL pipette at the bottom of the plate.\n(§5) (5) The cells were placed into a 37° C., 5% CO2 incubator for incubation, and observed and recorded by photographs at 12h and 24h."}, "[2]": {"test_system": "HOS human osteosarcoma cells", "test": "Migration of osteosarcoma cells (scratch lines, photographs at 12h and 24h)", "format": "cell-based", "details": "0.1 μM PKF118-310 in combination with 0.5 mM Vc", "procedure": "as §1, §2, §3, §4, §5"}, "[3]": {"test_system": "143B cells", "test": "Osteosarcoma tumor model in nude mice (tumor volume, Luciferin fluorescence imaging)", "format": "in vivo, nude mice (BALB/c-nu)", "procedure": "(1) Tumor preparation in nude mice. 6-8-week-old female nude mice (BALB/c-nu) (purchased from Vital River Laboratory Animal Technology Co., Ltd.) were selected. 143B cells were cultured in vitro to the log phase. The cells were collected and re-suspended in a PBS buffer solution. The collected cells were subcutaneously injected to the mammary glands of nude mice with 5×10^6 143B cells/nude mouse to establish a model of tumor in situ."}}}
{"smiles": "Cn1ncnc2c(=O)n(C)c(=O)nc1-2", "note": "[PKF118-310]", "values": [{"measurement": "migration of cells", "setting": "[1]", "value": "significantly inhibit the migration"}, {"measurement": "migration of cells", "setting": "[2]", "value": "significantly inhibit the migration"}, {"measurement": "tumor growth, tumor volume with time", "setting": "[3]; 0.7 mg/kg PKF118-310 s.c. + 1 g/kg ascorbic acid i.v. every 3 days, 6 times, vs blank control and single-drug groups (P<0.001)", "value": "significantly inhibits the tumor growth"}, {"measurement": "tumor volume on Day 21", "setting": "[3]; 0.7 mg/kg PKF118-310 s.c. + 1 g/kg ascorbic acid i.v., compared with blank control, PKF118-310 and sodium ascorbate groups", "value": "substantially smaller"}, {"measurement": "tumor growth, Luciferin fluorescence imaging", "setting": "[3]; Day 21, 0.7 mg/kg PKF118-310 s.c. + 1 g/kg ascorbic acid i.v. every 3 days, 6 times, vs blank control and single-drug groups", "value": "significantly inhibits the tumor growth"}]}
